≈ marks a conversion by molar mass, not a printed value. Read-outs that look alike come from different tables or passages of the source.
Assays:
Assay type in all cases: cell-based
[1] = system: Staphylococcus aureus NRS384 (MRSA); test: Broth microdilution MIC, S. aureus NRS384 (MRSA); parameters: MIC NRS 384 (MRSA): unit not given here; conditions: for MIC: Staphylococcus aureus
How it was run: (§1)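 Broth microdilution in strain-specific test medium with ~5.0×10^5 cfu/ml inoculum, 1% DMSO and two-fold compound dilutions from 64 to 0.0625 μg/ml. Plates were held 20 hours at 37° C in ambient air. S. pneumoniae colonies were grown beforehand on blood agar in 5% CO2.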

[2] = system: Staphylococcus aureus ATCC 29213 (MSSA); test: Broth microdilution MIC, S. aureus ATCC 29213 (MSSA); conditions: read-out: MIC S. aureus ATCC 29213 (MSSA)
How it was run: as §1

[3] = system: Enterococcus faecalis ATCC 29212; test: Broth microdilution MIC, E. faecalis ATCC 29212; conditions: read-out: MIC E. faecalis ATCC 29212
How it was run: as §1

[4] = system: Enterococcus faecium ATCC 700221 (VRE); test: Broth microdilution MIC, E. faecium ATCC 700221 (VRE); parameters: MIC E. faecium ATCC 700221 (VRE): unit: ug/mL; conditions: for MIC: Enterococcus faecium
How it was run: as §1

[5] = system: Streptococcus pneumoniae ATCC 49619; test: Broth microdilution MIC, S. pneumoniae ATCC 49619; conditions: read-out: MIC S. pneumoniae ATCC 49619
How it was run: as §1

[6] = system: Bacillus subtilis ATCC 6633; test: Broth microdilution MIC, B. subtilis ATCC 6633; conditions: read-out: MIC B. subtilis ATCC 6633
How it was run: as §1

[7] = system: Escherichia coli ATCC 25922; test: Broth microdilution MIC, E. coli ATCC 25922 (MHIIB w & w/o 4 mM EDTA); conditions: for MIC: Escherichia coli, read-out: MIC E. coli ATCC 25922; for MIC E. coli ATCC 25922 + 4 mM EDTA: with 4 mM EDTA
How it was run: as §1

[8] = broth microdilution, 37° C., 20 hours
[9] = broth microdilution, 37° C., 20 hours, read-out: MIC NRS 384 (MRSA)
[10] = ATCC29212, broth microdilution, 37° C., 20 hours
[11] = broth microdilution, 37° C., 20 hours, read-out: MIC E. faecium ATCC 700221 (VRE)
[12] = ATCC49619, broth microdilution, 37° C., 20 hours
[13] = ATCC6633, broth microdilution, 37° C., 20 hours
[14] = ATCC25922, without EDTA, broth microdilution, 37° C., 20 hours
[15] = S. aureus NRS 384, broth microdilution, 37° C., 20 hours, read-out: MIC NRS 384 (MRSA)

Structure (SMILES)	MIC ([1]; 20 h, read-out: MIC NRS 384 (MRSA)) [µg/mL]	MIC ([2]; 20 h) [µg/mL]	MIC ([3]; ATCC29212, 20 h) [µg/mL]	MIC ([4]; 20 h, read-out: MIC E. faecium ATCC 700221 (VRE)) [µg/mL]	MIC ([5]; ATCC49619, 20 h) [µg/mL]	MIC ([6]; ATCC6633, 20 h) [µg/mL]	MIC ([7]; ATCC25922, 20 h) [µg/mL]	MIC E. coli ATCC 25922 + 4 mM EDTA [7, 8] [µg/mL]	MIC [1, 9] [µg/mL]	MIC [2, 8] [µg/mL]	MIC [3, 10] [µg/mL]	MIC [4, 11] [µg/mL]	MIC [5, 12] [µg/mL]	MIC [6, 13] [µg/mL]	MIC [7, 14] [µg/mL]	MIC NRS 384 (MRSA) [1, 8]	MIC E. faecium ATCC 700221 (VRE) [4, 8]	MIC [1, 15] [µg/mL]	MIC ([1]; broth microdilution, MHIIB, 37° C., 20 hours, read-out: MIC against S. aureus NRS 384 (MRSA)) [µg/mL]	MIC ([4]; broth microdilution, MHIIB, 37° C., 20 hours, read-out: MIC against E. faecium ATCC 700221 (VRE)) [µg/mL]
COP(=O)(OC)OCCOCCn1ncc2nc(NCc3ccc(Cl)c(Cl)c3)[nH]c(=O)c21 [Compound 297, 2-(2-(5-((3,4-dichlorobenzyl)amino)-7-oxo-6,7-dihydro-1H-pyrazolo[4,3-d]pyrimidin-1-yl)ethoxy)ethyl dimethyl phosphate]	32	16	16	8	8	8	> 64	>64												
Cl.O=c1[nH]c(NCc2ccc(Cl)c(Cl)c2)nc2cnn(CCN3CCC(O)CC3)c12 [Compound 65, 5-((3,4-Dichlorobenzyl)amino)-1-(2-(4-hydroxypiperidin-1-yl)ethyl)-1H-pyrazolo[4,3-d]pyrimidin-7(6H)-one hydrochloride]								64	16	16	8	8	4	4	> 64					
Cl.O=c1[nH]c(NCc2ccc(Cl)c(Cl)c2)nc2cnn(CCc3cccnc3)c12 [Compound 110, 5-((3,4-Dichlorobenzyl)amino)-1-(2-(pyridin-3-yl)ethyl)-1H-pyrazolo[4,3-d]pyrimidin-7(6H)-one hydrochloride]								>64		4	4		4	1	> 64	2/2	2/2			
O=C(NCCn1ncc2nc(NCc3ccc(Cl)c(Cl)c3)[nH]c(=O)c21)c1cc(Cl)nnc1O [Compound 83, 6-chloro-N-(2-(5-((3,4-dichlorobenzyl)amino)-7-oxo-6,7-dihydro-1H-pyrazolo[4,3-d]pyrimidin-1-yl)ethyl)-3-hydroxypyridazine-4-carboxamide]								>64	> 64	> 64	> 64	> 64	8 (≈ 15.7 µM)	64 (≈ 126 µM)	> 64					
CC(C)n1ncc2nc(NCc3ccc(Cl)c(Cl)c3)[nH]c(=O)c21 [Compound 130, 5-((3,4-Dichlorobenzyl)amino)-1-isopropyl-1H-pyrazolo[4,3-d]pyrimidin-7(6H)-one]								16	2 (≈ 5.68 µM)	2 (≈ 5.68 µM)	4 (≈ 11.4 µM)	2 (≈ 5.68 µM)	4 (≈ 11.4 µM)	1 (≈ 2.84 µM)	> 64					
COCCn1nc(F)c2nc(NCc3ccc(Cl)c(Cl)c3)[nH]c(=O)c21 [Compound 305, 5-((3,4-Dichlorobenzyl)amino)-3-fluoro-1-(2-methoxyethyl)-1H-pyrazolo[4,3-d]pyrimidin-7(6H)-one]								>64		1 (≈ 2.59 µM)	2 (≈ 5.18 µM)	1 (≈ 2.59 µM)	4 (≈ 10.4 µM)	0.5 (≈ 1.29 µM)	> 64			1 (≈ 2.59 µM)	≤ 1	≤ 1
Cn1ncc2nc(NCc3ncccn3)[nH]c(=O)c21 [Compound 11, 1-Methyl-5-((pyrimidin-2-ylmethyl)amino)-1H-pyrazolo[4,3-d]pyrimidin-7(6H)-one]								>64	> 64	> 64	> 64	> 64	> 64	> 64	> 64					
Cl.O=c1[nH]c(NCc2ccc(Cl)c(Cl)c2)nc2cnn(CCc3cnccn3)c12 [Compound 124, 5-((3,4-Dichlorobenzyl)amino)-1-(2-(pyrazin-2-yl)ethyl)-1H-pyrazolo[4,3-d]pyrimidin-7(6H)-one hydrochloride]								>64	2	4	4	2	8	1	> 64					
O=c1[nH]c(NCc2ccc(Cl)c(Cl)c2)nc2cnn(Cc3ccc(O)c(O)c3)c12 [Compound 189, 5-((3,4-dichlorobenzyl)amino)-1-(3,4-dihydroxybenzyl)-1H-pyrazolo[4,3-d]pyrimidin-7(6H)-one]								64	16 (≈ 37 µM)	16 (≈ 37 µM)	16 (≈ 37 µM)	8 (≈ 18.5 µM)	64 (≈ 148 µM)	16 (≈ 37 µM)	> 64					
Cl.O=C(c1ccncc1)N1CCC(n2nc(F)c3nc(NCc4ccc(F)c(F)c4)[nH]c(=O)c32)CC1 [Compound 319, 5-((3,4-difluorobenzyl)amino)-3-fluoro-1-(1-isonicotinoylpiperidin-4-yl)-1H-pyrazolo[4,3-d]pyrimidin-7(6H)-one hydrochloride]								>64		8	8	4	4	2	> 64			8		
O=c1[nH]c(NCc2ccc(Cl)c(Cl)c2)nc2c(-c3ncco3)nn(CCOCCO)c12 [Compound 50, 5-((3,4-dichlorobenzyl)amino)-1-(2-(2-hydroxyethoxy)ethyl)-3-(oxazol-2-yl)-1H-pyrazolo[4,3-d]pyrimidin-7(6H)-one]								>64	> 64	> 64	> 64	> 64	> 64	> 64	> 64					
COCc1nnc(CCn2ncc3nc(NCc4ccc(Cl)c(Cl)c4)[nH]c(=O)c32)o1.Cl [Compound 235, 5-((3,4-dichlorobenzyl)amino)-1-(2-(5-(methoxymethyl)-1,3,4-oxadiazol-2-yl)ethyl)-1H-pyrazolo[4,3-d]pyrimidin-7(6H)-one hydrochloride]								>64	16	8	8	4	8	4	> 64					
Cn1ncc2nc(NCc3ccccc3Cl)[nH]c(=O)c21 [Compound 27, 5-((2-Chlorobenzyl)amino)-1-methyl-1H-pyrazolo[4,3-d]pyrimidin-7(6H)-one]								64	> 64	> 64	> 64	> 64	> 64	> 64	> 64					
Cn1nc(C2C=CCO2)c2nc(NCc3ccc(Cl)c(Cl)c3)[nH]c(=O)c21 (stereo not drawn) [Compound 46, 5-((3,4-dichlorobenzyl)amino)-3-(2,5-dihydrofuran-2-yl)-1-methyl-1H-pyrazolo[4,3-d]pyrimidin-7(6H)-one]								>64	8 (≈ 20.4 µM)	4 (≈ 10.2 µM)	16 (≈ 40.8 µM)	8 (≈ 20.4 µM)	16 (≈ 40.8 µM)	4 (≈ 10.2 µM)	> 64					
NC(=O)COCCn1ncc2nc(NCc3ccc(Cl)c(Cl)c3)[nH]c(=O)c21 [Compound 284, 2-[2-[5-[(3,4-dichlorophenyl)methylamino]-7-oxo-6H-pyrazolo[4,3-d]pyrimidin-1-yl]ethoxy]acetamide]								>64	64 (≈ 156 µM)	16 (≈ 38.9 µM)	16 (≈ 38.9 µM)	8 (≈ 19.5 µM)	8 (≈ 19.5 µM)	8 (≈ 19.5 µM)	> 64					
O=c1[nH]c(NCc2ccc(Cl)c(Cl)c2)nc2cn(CC3CCC3)nc12 [Compound 135, 2-(Cyclobutylmethyl)-5-((3,4-dichlorobenzyl)amino)-2H-pyrazolo[4,3-d]pyrimidin-7(6H)-one]								8	8 (≈ 21.1 µM)	32 (≈ 84.6 µM)	> 64	8 (≈ 21.1 µM)	16 (≈ 42.3 µM)	4 (≈ 10.6 µM)	> 64					
Cc1cncc(C(=O)N2CCC(n3ncc4nc(NCc5ccc(Cl)c(Cl)c5)[nH]c(=O)c43)CC2)c1.Cl [Compound 261, 5-((3,4-Dichlorobenzyl)amino)-1-(1-(5-methylnicotinoyl)piperidin-4-yl)-1H-pyrazolo[4,3-d]pyrimidin-7(6H)-one hydrochloride]								>64	4	4	4	2	4	1	> 64					
